BindingDB's records for doi:10.1016/j.ejmech.2016.05.044 (Texas A&M University, 2016)

Experiment: Negative allosteric modulator activity at CB1 receptor (unknown origin) expressed in HEK293 cell membrane assessed as reduction in CP55,940-induced [35S]GTPgammaS binding by measuring EC50 of CP55,940 at 3.2 uM incubated for 60 mins by liquid scintillation counting analysis (Rvb = 4.7 nM)

EC50 [nM] | Compound
7.9 | CCCCCc1c(C(=O)NCCc2ccc(C(=O)c3ccccc3)cc2)[nH]c2ccc(Cl)cc12
2.1 | CCCCCCc1c(C(=O)NCCc2ccc(N=[N+]=[N-])cc2)[nH]c2ccc(Cl)cc12
1.2 | CN(C)c1ccc(CCNC(=O)c2[nH]c3ccc(Cl)cc3c2CN=[N+]=[N-])cc1
2.7 | CCc1c(C(=O)NCCc2ccc(C(=O)c3ccccc3)cc2)[nH]c2ccc(Cl)cc12
